Data taken from paper PMC4779142, “The fully synthetic MAG-Tn3 therapeutic vaccine containing the tetanus toxoid-derived TT830-844 universal epitope provides anti-tumor immunity” (Cancer Immunology, Immunotherapy : CII, 2016).

System: CD4+ T cells from C3H/HeN lymph nodes
Format: cell-based, mouse
Settings: n = 5, sc 50 μg peptide with CFA, day 11, 50 μg/mL peptide in vitro

Sequence: RNTDGSTDYGILQINSR [HEL, H-2k-restricted HEL45-61 peptide derived from hen egg lysozyme ([…])]
- TNF-α, IL-2 and IFN-γ production by CD4+ T cells on in vitro stimulation with the peptide: able to produce TNF-α, IL-2 and IFN-γ
